Measurements as given in patent US20260315611A1, “LINKER COMPOUNDS AND LIGAND-DRUG CONJUGATES, PREPARATION METHODS AND USES THEREOF” (Biocytogen Pharmaceuticals (Beijing) Co., Ltd., priority 2023, published 2026).

Experiments:
NCI-H292 cells = assay: anti-tumor activity in NCI-H292 xenograft model; assay type: in vivo, NCI-H292 xenograft in B-NDG mice; details: 10 mg/kg i.v. BIW x2
Method: (§1) The lengths of the long axis and the short axis of the tumor were measured and the volume of the tumor was calculated as 0.5×(long axis)×(short axis)2. […] Ti is the average tumor volume in the treatment group on day i. T0 is the average tumor volume in the treatment group on day zero. Vi is the average tumor volume in the control group on day i. V0 is the average tumor volume in the control group on day zero. T-test was performed for statistical analysis. […] P<0.05 is a threshold to indicate significant difference. The body weights of the mice were also measured throughout the entire administration period.
(§2) The antibody or ADCs were tested for their effects on tumor growth in vivo in a xenograft model of lung cancer. Specifically, about 5×10^6 NCI-H292 cells were injected subcutaneously in B-NDG mice. When the tumors in the mice reached a volume of about 300 mm^3, the mice were randomly placed into different groups based on tumor volume. The mice were then injected with PBS, antibody, or ADCs by intravenous (i.v.) administration.

A431 cells = assay: anti-tumor activity in A431 xenograft model; assay type: in vivo, A431 xenograft in B-NDG mice; details: 10 mg/kg i.v. BIW x4
Method: as §1
as §2, with “The” for “The antibody or”, “epidermoid carcinoma.” for “lung cancer.”, “1×10^6 A431” for “5×10^6 NCI-H292”, “200” for “300”

NCI-N87 = assay: in vitro killing activity; assay type: cell-based, Human; details: 120 time of incubation
Method: (§3) Different concentrations of compounds CPT-1, CPT-2, CPT-3, CPT-4, Dxd (MedChem Express, Cat #: HY-13631D) and SN38 (MedChem Express, Cat #: HY-13704) were used to treat different human tumor cell lines, mice tumor cell lines, rat tumor cell lines or dog tumor cell lines cultured in a cell culture plate, respectively. And the killing activity was detected after 72 h-120 h incubation by IncuCyte (Sartorius AG, IncuCyte® S3) or MicroplateReader.

NCI-H226 = assay: in vitro killing activity; assay type: cell-based, Human; details: 120 h incubation
Method: as §3

SW620 = assay: in vitro killing activity; assay type: cell-based, Human; details: 120 h incubation
Method: as §3

LOVO = assay: in vitro killing activity; assay type: cell-based, Human; details: 120 h incubation
Method: as §3

HuH-7 = assay: in vitro killing activity; assay type: cell-based, Human; details: 120 h incubation
Method: as §3

Hela = assay: in vitro killing activity; assay type: cell-based, Human; details: 120 h incubation
Method: as §3

NCI-H1975 = assay: in vitro killing activity; assay type: cell-based, Human; details: 120 time of incubation
Method: as §3

PC12 = assay: in vitro killing activity; assay type: cell-based, Rat; details: 120 time of incubation
Method: as §3

L6 = assay: in vitro killing activity; assay type: cell-based, Rat; details: 120 h incubation
Method: as §3

Pgp = details: cited from earlier work
D17 = assay: in vitro killing activity; assay type: cell-based, Dog; details: 120 time of incubation
Method: as §3

MP-0094-2 = assay: in vitro killing activity; assay type: cell-based, Dog; details: 120 time of incubation
Method: as §3

MP-1044-1 = assay: in vitro killing activity; assay type: cell-based, Dog; details: 72 time of incubation
Method: as §3

MP-1092-1 = assay: in vitro killing activity; assay type: cell-based, Dog; details: 120 time of incubation
Method: as §3

CMT-U27 = assay: in vitro killing activity; assay type: cell-based, Dog; details: 120 time of incubation
Method: as §3

DCOL1 (S+L−) = assay: in vitro killing activity; assay type: cell-based, Dog; details: 120 time of incubation
Method: as §3

MP-0094-3 = assay: in vitro killing activity; assay type: cell-based, Dog; details: 120 time of incubation
Method: as §3

MC38 = assay: in vitro killing activity; assay type: cell-based, Mice; details: 120 time of incubation
Method: as §3

CT26 = assay: in vitro killing activity; assay type: cell-based, Mice; details: 96 time of incubation
Method: as §3

B16F10 = assay: in vitro killing activity; assay type: cell-based, Mice; details: 75 time of incubation
Method: as §3

A-431 = assay: in vitro killing activity; assay type: cell-based, Human; details: 120 time of incubation
Method: as §3

BT474 = assay: in vitro killing activity; assay type: cell-based, Human; details: 120 time of incubation
Method: as §3

NCI-H69 = assay: in vitro killing activity; assay type: cell-based, Human; details: 120 time of incubation
Method: as §3

PC-3 = assay: in vitro killing activity; assay type: cell-based, Human; details: 120 time of incubation
Method: as §3

OVKATE = assay: in vitro killing activity; assay type: cell-based, Human; details: 120 time of incubation
Method: as §3

HS-746T = assay: in vitro killing activity; assay type: cell-based, Human; details: 120 time of incubation
Method: as §3

SW156 = assay: in vitro killing activity; assay type: cell-based, Human; details: 120 time of incubation
Method: as §3

NCI-H2030 = assay: in vitro killing activity; assay type: cell-based, Human; details: 120 time of incubation
Method: as §3

NCI-H1781 = assay: in vitro killing activity; assay type: cell-based, Human; details: 120 time of incubation
Method: as §3

U-2-OS = assay: in vitro killing activity; assay type: cell-based, Human; details: 120 time of incubation
Method: as §3

Panc 02.03 = assay: in vitro killing activity; assay type: cell-based, Human; details: 120 time of incubation
Method: as §3

BxPC-3 = assay: in vitro killing activity; assay type: cell-based, Human; details: 120 time of incubation
Method: as §3

HCC1954 = assay: in vitro killing activity; assay type: cell-based, Human; details: 120 time of incubation
Method: as §3

SKOV-3 = assay: in vitro killing activity; assay type: cell-based, Human; details: 120 time of incubation
Method: as §3

With “Sacituzumab govitecan: humanized anti-TROP2 monoclonal antibody-drug conjugate from Immunomedics, Inc” the “Tumor volume Day 21” value (NCI-H292 cells) was 428 ± 51 mm^3, the “Tumor volume Day 39” value (NCI-H292 cells) was 893 ± 62 mm^3 and the “Tumor volume Day 0” value (NCI-H292 cells; day of grouping (baseline)) was 297 ± 11 mm^3. The “Tumor volume Day 17” value (A431 cells) was 682 ± 71 mm^3, the “Tumor volume Day 31” value (A431 cells) was 1554 ± 144 mm^3 and the “Tumor volume Day 0” value (A431 cells; day of grouping (baseline)) was 197 ± 6 mm^3.
For CCc1c2c(nc3ccc(O)cc13)-c1cc3c(c(=O)n1C2)COC(=O)[C@]3(O)CC [SN38, reference compound], the IC50 (NCI-N87) was 7.39 nM, the IC50 (NCI-H226) was 20.4 nM and the IC50 (SW620) was 4.6 nM. It also gave an IC50 (LOVO) of 10.2 nM, an IC50 (HuH-7) of 2.41 nM and an IC50 (Hela) of 6.61 nM. It also gave an IC50 (NCI-H1975) of 13.2 nM, an IC50 (PC12) of 5.66 nM and an IC50 (L6) of 20.8 nM. The Pgp substrate (Pgp) was “Pgp substrates”.
With CC[C@@]1(O)C(=O)OCc2c1cc1n(c2=O)Cc2c-1nc1cc(F)c(C)c3c1c2[C@@H](NC(=O)CO)CC3 [Dxd, reference compound] the IC50 (D17) was 6.08 nM, the IC50 (MP-0094-2) was 9.67 nM and the IC50 (MP-1044-1) was 41.7 nM. The IC50 (MP-1092-1) was 7.13 nM, the IC50 (CMT-U27) was 3.37 nM and the IC50 (DCOL1 (S+L−)) was 9.05 nM. The IC50 (MP-0094-3) was 22 nM, the IC50 (MC38) was 38.5 nM and the IC50 (CT26) was 94.2 nM. The IC50 (B16F10) was 26.2 nM, the IC50 (A-431) was 28.1 nM and the IC50 (BT474) was 10.9 nM. For the same compound, the IC50 (NCI-N87) was 7.03 nM, the IC50 (NCI-H69) was 0.299 nM and the IC50 (PC-3) was 6.4 nM. It also gave an IC50 (NCI-H226) of 22.9 nM, an IC50 (OVKATE) of 12.3 nM and an IC50 (SW620) of 3.89 nM. For the same compound, the IC50 (HS-746T) was 1.05 nM, the IC50 (LOVO) was 8.65 nM and the IC50 (SW156) was 1.84 nM. It also gave an IC50 (NCI-H2030) of 6.43 nM, an IC50 (NCI-H1781) of 0.724 nM and an IC50 (U-2-OS) of 41.9 nM. The IC50 (Panc 02.03) was 3.18 nM, the IC50 (BxPC-3) was 1.87 nM and the IC50 (HuH-7) was 1.39 nM. The IC50 (Hela) was 6.69 nM, the IC50 (HCC1954) was 3.31 nM and the IC50 (NCI-H1975) was 9.91 nM. For the same compound, the IC50 (SKOV-3) was 16.5 nM, the IC50 (PC12) was 9.19 nM and the IC50 (L6) was 13.8 nM. For the same compound, the Pgp substrate (Pgp) was “Pgp substrates”.
